The source of these data is ChEMBL document CHEMBL3526147, “Tissue distribution and characterization of drug-related material in rats and dogs after repeated oral administration of casopitant” (Drug Metab Dispos, 2011).

A value given as a limit tells only on which side of the number the result lay.

Data set [1] in a line: Drug level in kidney of beagle dog treated with [14C]casopitant mesylate at 40 mg/kg/day, po administered as repeat dose measured after 24 hrs on day 14 by HPLC-MS/MS method relative to [14C]casopitant mesylate radioactivity. It counts as ADME, organism-based, Canis lupus familiaris. Also on record: dosed compound name [14C]Casopitant, route oral. The note with it: in vivo.

Data set [2] can be described thus: Drug level in myocardium of beagle dog treated with [14C]casopitant mesylate at 40 mg/kg/day, po administered as repeat dose measured after 13 weeks by HPLC-MS/MS method. The format is ADME, organism-based, Canis lupus familiaris. The note with it: in vivo, 2184 h. Also on record: dosed compound name [14C]Casopitant, route oral.
A short description of data set [3]: Drug level in skeletal muscle of beagle dog treated with [14C]casopitant mesylate at 40 mg/kg/day, po administered as repeat dose measured after 24 hrs on day 14 by HPLC-MS/MS method relative to [14C]casopitant mesylate radioactivity. It counts as ADME, organism-based, Canis lupus familiaris, Muscle tissue. Further details: dosed compound name [14C]Casopitant, route oral. The note with it: in vivo.

Data set [4] has as its system Plasma. In words: Drug level in plasma of Sprague-Dawley rat treated with [14C]casopitant mesylate at 60 mg/kg/day, po administered as repeat dose measured after 24 hrs on day 20 by HPLC-MS/MS method relative to [14C]casopitant mesylate radioactivity. It counts as ADME, organism-based. Further details: dosed compound name [14C]Casopitant, route oral. To be noted: in vivo.

Data set [5] in a line: Drug level in lung of beagle dog treated with [14C]casopitant mesylate at 40 mg/kg/day, po administered as repeat dose measured after 24 hrs on day 14 by HPLC-MS/MS method relative to [14C]casopitant mesylate radioactivity. Further details: dosed compound name [14C]Casopitant, route oral. The format is ADME, organism-based, Canis lupus familiaris. To be noted: in vivo.
A short description of data set [6]: Drug level in myocardium of beagle dog treated with [14C]casopitant mesylate at 40 mg/kg/day, po administered as repeat dose measured after 6 weeks by HPLC-MS/MS method. The format is ADME, organism-based, Canis lupus familiaris. Also on record: dosed compound name [14C]Casopitant, route oral. The note with it: in vivo, 1008 h.
The nature of data set [7]: Drug level in myocardium of beagle dog treated with [14C]casopitant mesylate at 40 mg/kg/day, po administered as repeat dose measured after 20 weeks by HPLC-MS/MS method. The format is ADME, organism-based, Canis lupus familiaris. Also on record: dosed compound name [14C]Casopitant, route oral. To be noted: in vivo, 3360 h.
Data set [8] is described as follows: Drug level in myocardium of beagle dog treated with [14C]casopitant mesylate at 40 mg/kg/day, po administered as repeat dose measured after 22 weeks post dosing withdrawal by HPLC-MS/MS method. The format is ADME, organism-based, Canis lupus familiaris. Further details: dosed compound name [14C]Casopitant, route oral. The note with it: in vivo, 3696 h.
Data set [9] is described as follows: Drug level in myocardium of beagle dog treated with [14C]casopitant mesylate at 40 mg/kg/day, po administered as repeat dose measured after 26 weeks by HPLC-MS/MS method. The note with it: in vivo, 4368 h. The format is ADME, organism-based, Canis lupus familiaris. Also on record: dosed compound name [14C]Casopitant, route oral.
In data set [10] the test system is Plasma. In words: Drug level in plasma of beagle dog treated with [14C]casopitant mesylate at 40 mg/kg/day, po administered as repeat dose measured after 24 hrs on day 14 by HPLC-MS/MS method relative to [14C]casopitant mesylate radioactivity. It counts as ADME, organism-based, Canis lupus familiaris. Further details: dosed compound name [14C]Casopitant, route oral. The note with it: in vivo.

The subject of data set [11] is Canis familiaris. In words: Cmax in beagle dog treated with [14C]casopitant mesylate at 40 mg/kg/day, po administered as repeat dose measured after 26 weeks by HPLC-MS/MS method. It counts as ADME, organism-based, Canis lupus familiaris. Also on record: dose 40 mg/kg/day, dosed compound name [14C]Casopitant, route oral. To be noted: in vivo, 4368 h.
Data set [12] relates to Canis familiaris. In words: Tmax in beagle dog treated with [14C]casopitant mesylate at 40 mg/kg/day, po administered as repeat dose measured after 26 weeks by HPLC-MS/MS method. The format is ADME, organism-based, Canis lupus familiaris. Further details: dosed compound name [14C]Casopitant, route oral. The note with it: in vivo, 4368 h.
Data set [13] in a line: Drug level in myocardium of beagle dog treated with [14C]casopitant mesylate at 40 mg/kg/day, po administered as repeat dose measured after 24 hrs on day 14 by HPLC-MS/MS method relative to [14C]casopitant mesylate radioactivity. The format is ADME, organism-based, Canis lupus familiaris. Also on record: dosed compound name [14C]Casopitant, route oral. The note with it: in vivo.

Data set [14] has as its system Canis familiaris. In words: AUC (0 to t) in beagle dog treated with [14C]casopitant mesylate at 40 mg/kg/day, po administered as repeat dose measured after 26 weeks by HPLC-MS/MS method. The format is ADME, organism-based, Canis lupus familiaris, Plasma. Further details: dosed compound name [14C]Casopitant, route oral. To be noted: in vivo, 4368 h.
Data set [15] relates to Plasma. In words: Drug level in beagle dog plasma treated with [14C]casopitant mesylate at 40 mg/kg/day, po administered as repeat dose measured during 24 hrs dosing interval on week 26 by HPLC-MS/MS method. The format is ADME, organism-based, Canis lupus familiaris. Also on record: dosed compound name [14C]Casopitant, route oral. The note with it: in vivo.

As for `CC(=O)N1CCN([C@H]2CCN(C(=O)N(C)[C@H](C)c3cc(C(F)(F)F)cc(C(F)(F)F)c3)[C@@H](c3ccc(F)cc3C)C2)CC1O` (some centres not stated), the Compound recovery in [1] was determined as 2.9%; in [2] it was 4516 ng/g; in data set [3] it was 4.2%; in the data set on Plasma [4] it was 0.3%; in data set [5], 1.9%; in [6], 2041 ng/g. Also, the Compound recovery in data set [7] worked out at 6554 ng/g; in data set [9], 3686 ng/g; in the data set with Plasma [10], 4.8%; in [13], 2.1%. The “Drug concentration in myocardium” value in data set [8] is given as < 50 ng/g. In addition, the Cmax in the data set with Canis familiaris [11] came to 4357 ng/mL. Moreover, the Tmax in the data set with Canis familiaris [12] is 4 h. The compound further registered an AUCt in the data set on Canis familiaris [14] of 61603 ng·h/mL.

`Cc1cc(F)ccc1[C@H]1C[C@@H](NCCN)CCN1C(=O)N(C)[C@H](C)c1cc(C(F)(F)F)cc(C(F)(F)F)c1`: the Compound recovery in data set [1] is 4.8%; in data set [2], 62780 ng/g; in data set [3] it was 2.4%; with Plasma [4], “Metabolite not detected”; in [5] it was 2.3%; in data set [6], 39180 ng/g. Further, the Compound recovery is given as 85193 ng/g in [7], 114014 ng/g in [9], “BLD” in the data set on Plasma [10] (BLD = below limit of detection) and 3.7% in data set [13]. Moreover, in data set [8], the “Drug concentration in myocardium” value was determined as 31732 ng/g. In the data set with Canis familiaris [11], this compound yielded a Cmax of 65.5 ng/mL. Moreover, in the data set with Canis familiaris [12], the Tmax worked out at 24 h. Moreover, the AUCt with Canis familiaris [14] stood at 1442 ng·h/mL.

`C[C@@H](NC(N)=O)c1cc(C(F)(F)F)cc(C(F)(F)F)c1`: the Compound recovery result in data set [1] is reported as “Metabolite not detected”; in [3], “Metabolite not detected”; in the data set with Plasma [4], 4.6%; in data set [5], “Metabolite not detected”; in the data set on Plasma [10], “Metabolite not detected”; in [13], “Metabolite not detected”.

Take `Cc1cc(F)ccc1[C@H]1C[C@@H](N2CCNCC2)CCN1C(=O)N(C)[C@H](C)c1cc(C(F)(F)F)cc(C(F)(F)F)c1`: the Compound recovery in data set [1] is 7%; in data set [2], 7867 ng/g; in [3], 7.6%; with Plasma [4] it was 1.5%; in data set [5] it was 11.9%; in [6] it was 3623 ng/g. The Compound recovery in data set [7] was 14215 ng/g; in data set [9], 11346 ng/g; in the data set with Plasma [10] it was 0.8%; in data set [13] it was 3.4%; in the data set with Plasma [15], “metabolite_detected”. In addition, the “Drug concentration in myocardium” value in data set [8] was < 50 ng/g. The Cmax with Canis familiaris [11] is 82 ng/mL. The Tmax in the data set on Canis familiaris [12] is 8 h. In the data set on Canis familiaris [14], the AUCt is 1803 ng·h/mL.

In the case of `CC(=O)NCCN[C@H]1CCN(C(=O)N(C)[C@H](C)c2cc(C(F)(F)F)cc(C(F)(F)F)c2)[C@@H](c2ccc(F)cc2C)C1`, the Compound recovery in data set [2] is on record as 5386 ng/g; in [6], 2379 ng/g; in [7] it was 9399 ng/g; in [9] it was 6644 ng/g; with Plasma [15], “metabolite_detected”. Moreover, in [8], the “Drug concentration in myocardium” value was < 50 ng/g. The compound also showed a Cmax with Canis familiaris [11] of 189 ng/mL. Further, in the data set with Canis familiaris [12], the Tmax was determined as 1 h. Besides, the AUCt in the data set with Canis familiaris [14] came to 3040 ng·h/mL.

As to `Cc1cc(F)ccc1[C@H]1C[C@@H](N)CCN1C(=O)N(C)[C@H](C)c1cc(C(F)(F)F)cc(C(F)(F)F)c1`, the Compound recovery in data set [2] is reported as 39073 ng/g; in [6], 29401 ng/g; in data set [7] it was 52699 ng/g; in [9], 58640 ng/g; in the data set on Plasma [15] it was “metabolite_detected”. Also, the “Drug concentration in myocardium” value in data set [8] was 408 ng/g. In the data set with Canis familiaris [11], this compound registered a Cmax of 1044 ng/mL. Moreover, the Tmax in the data set with Canis familiaris [12] was 24 h. In the data set with Canis familiaris [14], this compound yielded an AUCt of 22858 ng·h/mL.

With `Cc1cc(F)ccc1[C@H]1C[C@@H](N2CCNC(=O)C2)CCN1C(=O)N(C)[C@H](C)c1cc(C(F)(F)F)cc(C(F)(F)F)c1`, the Compound recovery amounted to 2.2% in data set [1]; 2010 ng/g in data set [2]; 3.5% in data set [3]; 1.2% with Plasma [4]; 1.2% in data set [5]; 1517 ng/g in data set [6]. Moreover, the Compound recovery is on record as 3286 ng/g in data set [7]; 2416 ng/g in data set [9]; 4.1% with Plasma [10]; 1.6% in data set [13]; “metabolite_detected” with Plasma [15]. Moreover, the “Drug concentration in myocardium” value in data set [8] is recorded as < 50 ng/g. In the data set with Canis familiaris [11], the Cmax is 1013 ng/mL. Further, in the data set with Canis familiaris [12], the Tmax turned out to be 8 h. In the data set on Canis familiaris [14], this compound showed an AUCt of 21248 ng·h/mL.

On to `CC(=O)N1CCN([C@H]2CCN(C(=O)N(C)[C@H](C)c3cc(C(F)(F)F)cc(C(F)(F)F)c3)[C@@H](c3ccc(F)cc3C)C2)CC1=O`, for which the Compound recovery was 1.1% in data set [1]; 1.3% in data set [3]; 0.2% with Plasma [4]; 0.6% in data set [5]; 0.9% in the data set with Plasma [10]; 0.5% in [13].

On to `CC(=O)N1CCN([C@H]2CCN(C(=O)N(C)[C@H](C)c3cc(C(F)(F)F)cc(C(F)(F)F)c3)[C@@H](c3ccc(F)cc3C)C2)CC1.CS(=O)(=O)O` [CASOPITANT MESYLATE], for which the Compound recovery in data set [1] is given as 7%; in data set [2] it was 1991 ng/g; in [3], 2.4%; in the data set on Plasma [4], 1.5%; in [5], 11.9%; in data set [6], 467 ng/g. The Compound recovery is 2098 ng/g in [7], 889 ng/g in data set [9], 1.9% with Plasma [10] and 3.7% in data set [13]. In addition, in data set [8], the “Drug concentration in myocardium” value was < 50 ng/g. For the same compound, the Cmax in the data set on Canis familiaris [11] is 7167 ng/mL. The Tmax in the data set on Canis familiaris [12] is 1 h. The AUCt in the data set with Canis familiaris [14] came out at 53599 ng·h/mL.
